The text below walks through data of patent publication US9868736B2, “Deubiquitinase inhibitors and methods for use of the same” (THE REGENTS OF THE UNIVERSITY OF MICHIGAN, priority 2013, dated 2018).

Data set [1] deals with T1, catalytic domain of Usp9x (Usp9xCD) (Homo sapiens, UniProt Q93008).
T1 construct: DNA corresponding to amino acids 1553-1960 of human Usp9x; His6-Smt3 (SUMO) fusion tag, ULP1-cleavable (N, cleaved yes); made in house; host or cells: E. coli
T1 sequence (Q93008 1553-1960): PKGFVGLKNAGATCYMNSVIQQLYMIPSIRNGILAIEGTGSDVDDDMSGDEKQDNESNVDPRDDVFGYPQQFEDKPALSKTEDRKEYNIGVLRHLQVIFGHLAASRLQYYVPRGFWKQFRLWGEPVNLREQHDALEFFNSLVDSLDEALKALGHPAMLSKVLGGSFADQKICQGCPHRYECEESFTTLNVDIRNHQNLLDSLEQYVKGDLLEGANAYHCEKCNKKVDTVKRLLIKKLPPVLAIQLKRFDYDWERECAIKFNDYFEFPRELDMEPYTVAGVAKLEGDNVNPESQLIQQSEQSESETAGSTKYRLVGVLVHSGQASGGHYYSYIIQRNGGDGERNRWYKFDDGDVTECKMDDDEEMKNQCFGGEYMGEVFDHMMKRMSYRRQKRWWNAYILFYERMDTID
Nature of the data set: Usp9xCD Ub-AMC enzyme assay. Conditions: 300 nM Usp9xCD, 30 min at 37° C. with inhibitor, 1.5 μM Ub-AMC. Format: biochemical. On the procedure:
A series of chemical modifications were initiated to increase our structure activity relationship (SAR) analysis of inhibitors. […] The DNA was cloned into a ULP1-protease cleavable N-terminal His6-Smt3-fusion tag expression vector, derived from pET-28. Protein expression was induced at OD600 2.0, in TB media with Kanamycin overnight at 16° C. Cells were harvested and flash frozen before use. […] Protein was concentrated to roughly 20-40 mg/ml before aliquots were flash-frozen. All steps were performed in the presence of reducing agents, either BME, DTT, or TCEP.
Purified recombinant enzyme in buffer containing 2 mM DTT was buffer exchanged into 25 mM Tris-HCl, 50 mM NaCl and 1 mg/ml BSA using a spin column. […] IC50 values were estimated by integrating the slope of each reaction using GraphPad 6.
Two hundred and ten (210) novel chemical structures were screened for Usp9xCD inhibitory activity using this assay. […] Fluorescent scans were used to assess Usp9xCD inhibitory activity in this enzyme assay for all compounds of interest. Each assay was performed in duplicate and the linear region of each reaction curve was used to calculate IC50 values for Usp9xCD inhibition which are tabulated in Table 1.

The next data set has as its system Mcl-1, PARP. Nature of the data set: Mcl-1 level and PARP cleavage in treated tumor cells. Format: cell-based. The note with it: Z138 lymphoma cells, 1.25, 2.5 and 5 μM, 4 hours.
A short description of another data set: aqueous solubility. It is filed as physicochemical.
For data set [2] the following is noted: background statement; cited from earlier work.
The target of the next data set is Usp9x (Homo sapiens, UniProt Q93008). Kind of data set: DUB activity (HA-Ub vinyl-sulfone labelling) in lysates of treated intact cells. The note with it: Z138 lymphoma cells, 1.25, 2.5 and 5 μM, 4 hours. More on the design: endogenous in cells; host or cells: Z138 lymphoma, MM1.S/MM1.ST myeloma, primary PCL cells, A375 and vemurafenib-resistant A375 melanoma. Format: cell-based. On the procedure: In brief, control and treated cells were lysed by sonication in DUB assay buffer [50 mM Tris-HCl (pH 7.5), 5 mM MgCl2, 250 mM sucrose, 1 mM PMSF, 1× Roche proteinase inhibitory cocktail] and 20 μg of protein from the supernatant fraction (after a 14,000×g spin) were incubated with 200 nM HA-Ub vinyl-sulfone (Boston Biochem) in a final volume of 20 μl. After 90 min at 37° C., reactions were stopped with the addition of 5×-sample buffer. DUB activity was detected by SDS-PAGE resolution of the protein followed by nitrocellulose membrane transfer and immunoblotting with anti-HA.
The time required for G9-mediated Usp9x inhibition in intact multiple myeloma (MM1.S) cells and primary tumor cells from a patient with plasma cell leukemia (PCL) was investigated. MM1.ST (FIG. 1, left) or PCL (FIG. 1, right) cells were treated with 5 μM of compound for the time indicated before Usp9x activity was assessed as described above.

For data set [3], the system named is vemurafenib sensitive and resistant A375 melanoma cells. Nature of the data set: in vitro anti-tumor efficacy in A375 melanoma cells. Format: cell-based. The note with it: A375 cells, Usp5 knockdown. An excerpt:
Similar results were obtained in A375R Usp5 KD cells treated with a MEK inhibitor.

Values after ≈ are worked out from the molar mass of the structure shown. Like-named read-outs stand apart in the source and are kept apart here.

Chain of Usp9x (Q93008 whole entry): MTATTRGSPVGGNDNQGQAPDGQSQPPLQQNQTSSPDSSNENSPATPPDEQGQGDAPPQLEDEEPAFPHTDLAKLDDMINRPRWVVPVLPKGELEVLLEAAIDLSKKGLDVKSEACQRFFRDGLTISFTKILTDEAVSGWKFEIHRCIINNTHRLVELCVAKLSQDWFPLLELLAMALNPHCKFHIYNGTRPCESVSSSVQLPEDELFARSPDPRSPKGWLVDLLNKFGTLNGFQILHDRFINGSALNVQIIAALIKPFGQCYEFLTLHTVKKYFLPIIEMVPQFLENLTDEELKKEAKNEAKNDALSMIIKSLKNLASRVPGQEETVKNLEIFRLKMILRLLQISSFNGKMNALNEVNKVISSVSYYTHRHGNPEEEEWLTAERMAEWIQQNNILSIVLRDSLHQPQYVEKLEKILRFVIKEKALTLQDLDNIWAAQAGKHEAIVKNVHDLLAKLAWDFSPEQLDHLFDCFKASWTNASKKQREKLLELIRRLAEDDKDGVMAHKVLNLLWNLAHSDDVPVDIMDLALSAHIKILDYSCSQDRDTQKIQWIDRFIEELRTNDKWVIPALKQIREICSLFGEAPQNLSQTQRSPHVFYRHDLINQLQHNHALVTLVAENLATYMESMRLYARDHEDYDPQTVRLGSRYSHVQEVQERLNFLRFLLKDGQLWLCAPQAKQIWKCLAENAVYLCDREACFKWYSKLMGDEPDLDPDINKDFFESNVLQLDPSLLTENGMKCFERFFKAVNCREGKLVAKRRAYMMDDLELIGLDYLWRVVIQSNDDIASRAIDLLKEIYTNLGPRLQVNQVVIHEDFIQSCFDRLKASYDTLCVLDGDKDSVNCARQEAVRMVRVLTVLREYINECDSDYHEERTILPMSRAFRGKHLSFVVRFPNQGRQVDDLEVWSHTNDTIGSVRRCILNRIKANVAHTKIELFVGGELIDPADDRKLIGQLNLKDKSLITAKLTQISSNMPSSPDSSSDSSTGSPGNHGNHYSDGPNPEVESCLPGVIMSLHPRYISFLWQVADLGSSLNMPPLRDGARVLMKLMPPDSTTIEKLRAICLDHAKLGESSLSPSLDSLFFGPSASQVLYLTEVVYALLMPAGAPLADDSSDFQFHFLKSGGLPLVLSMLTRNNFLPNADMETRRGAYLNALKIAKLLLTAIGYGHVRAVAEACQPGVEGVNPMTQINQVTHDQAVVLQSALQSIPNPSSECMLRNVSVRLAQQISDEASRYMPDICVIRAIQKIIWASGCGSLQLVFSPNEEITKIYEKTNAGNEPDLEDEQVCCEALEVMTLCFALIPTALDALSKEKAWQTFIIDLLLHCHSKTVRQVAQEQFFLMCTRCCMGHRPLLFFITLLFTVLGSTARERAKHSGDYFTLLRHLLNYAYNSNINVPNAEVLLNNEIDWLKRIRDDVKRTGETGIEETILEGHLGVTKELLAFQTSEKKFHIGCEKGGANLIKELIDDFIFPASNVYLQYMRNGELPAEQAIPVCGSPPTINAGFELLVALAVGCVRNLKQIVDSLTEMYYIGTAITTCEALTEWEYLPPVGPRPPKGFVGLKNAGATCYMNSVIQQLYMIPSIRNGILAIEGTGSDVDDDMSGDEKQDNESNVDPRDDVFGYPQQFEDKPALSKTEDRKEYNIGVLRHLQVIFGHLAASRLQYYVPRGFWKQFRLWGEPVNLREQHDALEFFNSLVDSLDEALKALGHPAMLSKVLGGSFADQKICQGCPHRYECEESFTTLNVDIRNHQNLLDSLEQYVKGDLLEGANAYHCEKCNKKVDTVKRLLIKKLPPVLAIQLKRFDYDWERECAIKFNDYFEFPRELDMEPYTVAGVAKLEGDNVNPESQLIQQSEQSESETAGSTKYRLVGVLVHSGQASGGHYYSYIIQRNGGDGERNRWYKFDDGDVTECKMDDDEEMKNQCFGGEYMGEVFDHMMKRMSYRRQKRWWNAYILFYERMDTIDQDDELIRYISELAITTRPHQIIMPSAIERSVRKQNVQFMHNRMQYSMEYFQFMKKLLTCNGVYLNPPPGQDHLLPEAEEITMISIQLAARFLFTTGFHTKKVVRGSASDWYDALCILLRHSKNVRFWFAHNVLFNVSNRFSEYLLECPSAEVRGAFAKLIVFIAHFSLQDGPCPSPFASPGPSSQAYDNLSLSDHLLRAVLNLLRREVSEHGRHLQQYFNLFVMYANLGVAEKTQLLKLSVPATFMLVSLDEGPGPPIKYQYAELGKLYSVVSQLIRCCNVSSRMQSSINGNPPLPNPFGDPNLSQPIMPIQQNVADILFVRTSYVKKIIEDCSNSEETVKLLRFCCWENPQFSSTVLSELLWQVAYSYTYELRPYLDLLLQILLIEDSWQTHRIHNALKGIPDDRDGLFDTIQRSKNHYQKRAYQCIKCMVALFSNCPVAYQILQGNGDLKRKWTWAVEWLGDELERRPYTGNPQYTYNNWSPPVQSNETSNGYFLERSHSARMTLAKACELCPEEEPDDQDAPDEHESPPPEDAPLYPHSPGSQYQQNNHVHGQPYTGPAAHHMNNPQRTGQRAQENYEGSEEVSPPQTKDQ

Take `CCCC(NC(=O)/C(C#N)=C/c1nc(Cl)ccc1Cl)c1ccc(OCCN2CCOCC2)cc1` (stereo not shown) [drawing 26]: the IC50 in data set [1] is 1.6 µM.
In turn, `CCC[C@H](NC(=O)/C(C#N)=C/c1cccc(Br)n1)c1ccccc1` [WP1130, reference compound] gave an IC50 in data set [1] of 4.8 µM. In the data set on Mcl-1, PARP, the “level of Mcl-1” value was “reduce the level of a downstream target of Usp9x”. The solubility in the data set “aqueous solubility” is 2.6 µM (≈ 0.999 µg/mL); in data set [2], “poor solubility”. The “Usp9x activity in intact cells” value on Usp9x is reported as “able to inhibit Usp9x activity in intact cells”.
As to `CCCS(=O)(=O)Nc1ccc(F)c(C(=O)c2c[nH]c3ncc(-c4ccc(Cl)cc4)cc23)c1F` [vemurafenib, reference compound], in data set [3], the “reduction of the vemurafenib IC50 concentration by Usp5 KD” value is on record as “about 2 fold”.

What is called IC50 is the midpoint of a concentration-inhibition curve. Low readings indicate inhibition by little substance, high ones a need for much substance. One may read the solubility as the dissolved amount per volume that the medium holds.
